# Test results reported in ChEMBL document CHEMBL4002549, “Synthesis and evaluation of halogenated 12N-sulfonyl matrinic butanes as potential anti-coxsackievirus agents” (Eur J Med Chem, 2017).
# Assays:
# [1] = Selectivity index, ratio of TC50 for African green monkey Vero cells to IC50 for Coxsackievirus B3 Nancy infected in African green monkey Vero cells; assay type: toxicity; details: read-out: Selectivity Index
# Coxsackievirus B3 = assay: Antiviral activity against Coxsackievirus B3 Nancy infected in African green monkey Vero cells assessed as inhibition of virus-induced cytopathic effect; assay type: functional; details: Enterovirus B
# [2] = Cytotoxicity against African green monkey Vero cells assessed as cytopathic effect after 48 hrs; assay type: cell-based; details: chlorocebus sabaeus, read-out: TC50
# [3] = Acute toxicity in po dosed Kunming mouse measured for 7 days; assay type: organism-based; details: in vivo
# [4] = Tmax in Sprague-Dawley rat at 25 mg/kg, po; assay type: ADME, organism-based; details: in vivo
# [5] = Selectivity index, ratio of TC50 for African green monkey Vero cells to IC50 for Coxsackievirus B5 Faulkner infected in African green monkey Vero cells; assay type: toxicity; details: read-out: Selectivity Index
# [6] = Half life in Sprague-Dawley rat at 25 mg/kg, po; assay type: ADME, organism-based; details: in vivo
# Coxsackievirus B1 = assay: Antiviral activity against Coxsackievirus B1 Conn 5 infected in African green monkey Vero cells assessed as inhibition of virus-induced cytopathic effect; assay type: functional; details: Enterovirus B, Conn 5, Vero
# [7] = Selectivity index, ratio of TC50 for African green monkey Vero cells to IC50 for Coxsackievirus B2 Ohio-1 infected in African green monkey Vero cells; assay type: toxicity; details: read-out: Selectivity Index
# [8] = Antiviral activity against Coxsackievirus B6 Schmitt infected in African green monkey Vero cells assessed as inhibition of virus-induced cytopathic effect; assay type: functional, Coxsackievirus B6 (strain Schmitt); details: Enterovirus B
# Coxsackievirus B5 = assay: Antiviral activity against Coxsackievirus B5 Faulkner infected in African green monkey Vero cells assessed as inhibition of virus-induced cytopathic effect; assay type: functional; details: Enterovirus B
# [9] = Selectivity index, ratio of TC50 for African green monkey Vero cells to IC50 for Coxsackievirus B1 Conn 5 infected in African green monkey Vero cells; assay type: toxicity; details: read-out: Selectivity Index
# [10] = Selectivity index, ratio of TC50 for African green monkey Vero cells to IC50 for Coxsackievirus B4 JVB infected in African green monkey Vero cells; assay type: toxicity; details: read-out: Selectivity Index
# [11] = Selectivity index, ratio of TC50 for African green monkey Vero cells to IC50 for Coxsackievirus B6 Schmitt infected in African green monkey Vero cells; assay type: toxicity; details: read-out: Selectivity Index
# [12] = AUC (0 to t) in Sprague-Dawley rat at 25 mg/kg, po; assay type: ADME, organism-based; details: in vivo
# [13] = Antiviral activity against Coxsackievirus B2 Ohio-1 infected in African green monkey Vero cells assessed as inhibition of virus-induced cytopathic effect; assay type: functional, Coxsackievirus B2 (strain Ohio-1); details: Enterovirus B
# [14] = Cmax in Sprague-Dawley rat at 25 mg/kg, po; assay type: ADME, organism-based; set-up: dose 25 mg/kg, route oral; details: in vivo
# [15] = MRT in Sprague-Dawley rat at 25 mg/kg, po; assay type: ADME, organism-based; details: in vivo
# Coxsackievirus B4 = assay: Antiviral activity against Coxsackievirus B4 JVB infected in African green monkey Vero cells assessed as inhibition of virus-induced cytopathic effect; assay type: functional; details: Enterovirus B
# [16] = AUC (0 to infinity) in Sprague-Dawley rat at 25 mg/kg, po; assay type: ADME, organism-based; set-up: dose 25 mg/kg, route oral, time infinity; details: in vivo
Structure (SMILES),selectivity ratio [1],IC50 (Coxsackievirus B3),CC50 at 48 h [2],further results
C1CCN2C[C@@H]3CCCN4CCC[C@@H]([C@H]34)[C@H]2C1,11.4,57 µM,652 µM,–
NC(=O)c1cccc(S(=O)(=O)N2C[C@@H]3CCCN4CCC[C@@H]([C@H]34)[C@H]2CCO)c1,> 53.1,9.25 µM,> 491 µM,–
N#Cc1ccccc1S(=O)(=O)N1C[C@@H]2CCCN3CCC[C@@H]([C@H]23)[C@H]1CCCl,> 244,1.85 µM,> 452 µM,LD50 at 168 h [3]: 348 mg/kg
CCCC[C@@H]1[C@H]2CCCN3CCC[C@@H](CN1S(=O)(=O)c1ccccc1C#N)[C@@H]23,111,1.04 µM,116 to 200 µM,Tmax [4]: 1.33 h; selectivity ratio [5]: > 290; half-life [6]: 2.48 h; IC50 (Coxsackievirus B1): 1.52 µM; selectivity ratio [7]: > 121; IC50 [8]: 2.06 µM; IC50 (Coxsackievirus B5): 0.69 µM; selectivity ratio [9]: > 132; selectivity ratio [10]: > 38.9; selectivity ratio [11]: 75.3; AUC(0-t) [12]: 30.9 µM·h; IC50 [13]: 1.65 µM; Cmax [14]: 3.07 µM; LD50 at 168 h [3]: > 500 mg/kg; MRT [15]: 4.05 h; IC50 (Coxsackievirus B4): 5.14 µM; AUC(0-inf) [16]: 31.8 µM·h
CCCC[C@@H]1[C@H]2CCCN3CCC[C@@H](CN1S(=O)(=O)c1ccc(C(=O)OC)cc1)[C@@H]23,25.1,14.2 µM,367 µM,–
N#Cc1ccccc1S(=O)(=O)N1C[C@@H]2CCCN3CCC[C@@H]([C@H]23)[C@H]1CCCCCl,51.2,3.99 µM,204 µM,LD50 at 168 h [3]: 348 mg/kg
O=S(=O)(c1ccccc1/C=N/O)N1C[C@@H]2CCCN3CCC[C@@H]([C@H]23)[C@H]1CCO,> 565,0.87 µM,> 491 µM,LD50 at 168 h [3]: < 500 mg/kg
CC(=O)c1ccc(S(=O)(=O)N2C[C@@H]3CCCN4CCC[C@@H]([C@H]34)[C@H]2CCCl)cc1,20.5,12.2 µM,251 µM,–
CCCC[C@@H]1[C@H]2CCCN3CCC[C@@H](CN1S(=O)(=O)c1ccccc1C(=O)OC)[C@@H]23,44.1,7.24 µM,320 µM,–
O=S(=O)(c1cccc(C(F)(F)F)c1)N1C[C@@H]2CCCN3CCC[C@@H]([C@H]23)[C@H]1CCCCF,122,0.82 µM,100 µM,–
O=S(=O)(c1ccc(C(F)(F)F)cc1)N1C[C@@H]2CCCN3CCC[C@@H]([C@H]23)[C@H]1CCCCF,121,1.19 µM,144 µM,–
N#Cc1cccc(S(=O)(=O)N2C[C@@H]3CCCN4CCC[C@@H]([C@H]34)[C@H]2CCF)c1,> 6.84,74.8 µM,> 512 µM,–
CCCC[C@@H]1[C@H]2CCCN3CCC[C@@H](CN1S(=O)(=O)c1ccccc1[N+](=O)[O-])[C@@H]23,92.5,2.47 µM,228 µM,–
N#Cc1cccc(S(=O)(=O)N2C[C@@H]3CCCN4CCC[C@@H]([C@H]34)[C@H]2CCCl)c1,97,3.23 µM,313 µM,LD50 at 168 h [3]: 348 mg/kg
CCCC[C@@H]1[C@H]2CCCN3CCC[C@@H](CN1S(=O)(=O)c1ccc(N)cc1)[C@@H]23,3.6,23 µM,82.9 µM,–
N#Cc1cccc(S(=O)(=O)N2C[C@@H]3CCCN4CCC[C@@H]([C@H]34)[C@H]2CCCCF)c1,61.4,4.49 µM,276 µM,LD50 at 168 h [3]: 654 mg/kg
O=S(=O)(c1ccc(C(F)(F)F)cc1)N1C[C@@H]2CCCN3CCC[C@@H]([C@H]23)[C@H]1CCF,27.6,13 µM,358 µM,–
CCCC[C@@H]1[C@H]2CCCN3CCC[C@@H](CN1S(=O)(=O)c1cccc(C#N)c1)[C@@H]23,84.3,1.14 µM,96.2 µM,–
CCCC[C@@H]1[C@H]2CCCN3CCC[C@@H](CN1S(=O)(=O)c1cccc(C(=O)OC)c1)[C@@H]23,50.9,1.45 µM,73.7 µM,–
N#Cc1cccc(S(=O)(=O)N2C[C@@H]3CCCN4CCC[C@@H]([C@H]34)[C@H]2CCCCCl)c1,24.3,8.39 µM,204 µM,–
NC(=O)c1ccc(S(=O)(=O)N2C[C@@H]3CCCN4CCC[C@@H]([C@H]34)[C@H]2CCO)cc1,> 30.7,16 µM,> 491 µM,–
N#Cc1ccccc1S(=O)(=O)N1C[C@@H]2CCCN3CCC[C@@H]([C@H]23)[C@H]1CCCCF,13,17.7 µM,230 µM,LD50 at 168 h [3]: 560 mg/kg
CCCC[C@@H]1[C@H]2CCCN3CCC[C@@H](CN1S(=O)(=O)c1ccc(OC)cc1)[C@@H]23,16.6,5.8 µM,96.2 µM,–
CCCC[C@@H]1[C@H]2CCCN3CCC[C@@H](CN1S(=O)(=O)c1ccc(NC(C)=O)cc1)[C@@H]23,38.9,2.47 µM,96.2 µM,–
O=S(=O)(c1ccccc1C(F)(F)F)N1C[C@@H]2CCCN3CCC[C@@H]([C@H]23)[C@H]1CCCCF,13.6,16.8 µM,229 µM,–
N#Cc1ccc(S(=O)(=O)N2C[C@@H]3CCCN4CCC[C@@H]([C@H]34)[C@H]2CCCCF)cc1,36.7,7.51 µM,276 µM,LD50 at 168 h [3]: 353 mg/kg
NC(=O)c1ncn([C@@H]2O[C@H](CO)[C@@H](O)[C@H]2O)n1 [RIBAVIRIN],11.8 to 16.8,379 to 695 µM,6360 to 8200 µM,IC50 (Coxsackievirus B1): 2380 µM; IC50 [8]: 2090 µM; IC50 (Coxsackievirus B5): 3320 µM; IC50 [13]: > 500 µM; IC50 (Coxsackievirus B4): > 500 µM
